Data as given in patent US20250092383A1, “COMPOUNDS AND METHODS FOR FBXO22-MEDIATED PROTEIN DEGRADATION” (Northwestern University, priority 2023, published 2025).

Legend:
FKBP12 [1] = biological target: T1, FKBP12 (Homo sapiens, UniProt P62942); test: Western blot of FLAG-FKBP12 degradation in HEK293T cells expressing HA-FBXO22; assay type: cell-based; design: expressed in transfected cells; host or cells: HEK293T
Method: The bar graph represents quantification of the FLAG-FKBP12/HSP90 protein content. Data are presented as the mean values±s.e.m. […] HEK293T cells expressing HA-FBXO22 were treated with 0.025-15 μM 22-SLF for 8 h. The graph represents quantification of the FLAG-FKBP12/HSP90 protein content. Data are presented as the mean values (n=2 biological independent samples). […] The bar graph represents quantification of the FLAG-FKBP12/HSP90 protein content. KO, knockout; WT, wild type. Data are presented as the mean values (n=2 biological independent samples). […] The bar graph represents quantification of the FLAG-FKBP12/HSP90 protein content. Data are presented as the mean values±s.e.m. […] The result is representative of two independent experiments with similar results. WCL, whole-cell lysate; IP, immunoprecipitate.
(§1) FIGS. 3A-3H show FBXO22 C227 and C228 are involved in 22-SLF-mediated degradation of FKBP12. […] Among 5,650 quantified IA-DTB-modified peptides, four cysteines were identified on FBXO22 (C83, C117, C228, and C365). […] Data are presented as the mean values (n=2 biological independent samples for DMSO treatment; n=3 biological independent samples for 22-SLF Treatment). […] The bag graph represents quantification of the FLAG-FKBP12/HSP90 protein content. Data are presented as mean values (n=2 biological independent samples). […] The bar graph represents quantification of the FLAG-FKBP12/HSP90 protein content. Data are presented as the mean values (n=2 biological independent samples).
FIG. 11A-11B show the acrylamide variant of 22-SLF, 22a-SLF, induced the degradation of FKBP12. […] HEK293T cells expressing HA-FBXO22 were treated with 0.5, 1, or 2 μM of 22-SLF or 22a-SLF for 8 hours. The graph represents quantification of the FLAG-FKBP12/HSP90 protein content. Data are presented as mean values (n=2 biological independent samples).
Next, Western blot analysis was used to measure the degradation of FKBP12 induced by 22-SLF. To achieve this, FLAG-tagged FKBP12 and HA-tagged FBXO22 were stably overexpressed in HEK293T cells, followed by subjecting the cells to varying concentrations of 22-SLF. […] Moreover, 22-SLF's effect on FLAG-FKBP12 degradation was concentration-dependent (FIG. 2a). […] The rescue enabled by MLN4924 indicates the involvement of a Cullin-RING ligase (CRL) in the degradation process. This is consistent with FBXO22 belonging to SKP1-CUL1-F-box protein (SCF) ubiquitin ligase complexes, a subfamily of CRL. […] To provide a more comprehensive insight into 22-SLF-induced FKBP12 degradation, a dose-dependent degradation experiment using 11 concentrations of 22-SLF ranging from […] to 15 μM was conducted. This experiment enabled determination of two parameters, the Dmax value, which reached 89%, and the half-maximal degradation concentration (DC50) value, which measured at 0.5 μM (FIG. 2B). […] Collectively, this array of data supports the canonical mechanism of ligand-induced protein degradation. In this mechanism, 22-SLF orchestrates the recruitment of FBXO22 to FKBP12, culminating in the proteasomal degradation of FKBP12.
To identify the cysteine residue(s) in FBXO22 engaged with 22-SLF, HA-FBXO22-expressing HEK293T cells were treated with either DMSO or 22-SLF (2 μM, 2 hours). Using competitive cysteine-directed activity-based protein profiling (ABPP), a chemical proteomics for the measurement of target engagement, the degree of blockade of iodoacetamide-desthiobiotin (IA-DTB)-modified cysteines on FBXO22 was quantified. From a pool of 5,650 quantified IA-DTB-modified peptides, four cysteines on FBXO22 (C83, C117, C228, and C365) (FIG. 3a) were identified, with approximately 20% of FBXO22 C228 being blocked by 22-SLF treatment (FIG. 3b), indicating the potential interaction with this cysteine by 22-SLF. Consequently, C228 was mutated to alanine and HA-FBXO22 C228A-expressing HEK293T cells were generated (FIG. 3c). […]

FKBP12 [2] = biological target: T1, FKBP12; test: Global proteomic analysis in HEK293T cells expressing FBXO22 wildtype or C227AC228A; assay type: cell-based; design: expressed in transfected cells; host or cells: HEK293T; conditions: 0.5 μM, 24 hours
Source text: as §1
FIGS. 9A-9B show FBXO22 C227 and C228 are involved in 22-SLF-mediated degradation of FKBP12.
Global proteomic analysis in FBXO22 wildtype- and C227AC228A-expressing HEK293T cells was conducted, comparing the effects of 22-SLF treatment on the expression level of FKBP12. […] Using this predicted human FBXO22 structure, a model structure of the interaction with the electrophilic portion of 22-SLF was conducted.

T1 sequence (P62942 whole entry): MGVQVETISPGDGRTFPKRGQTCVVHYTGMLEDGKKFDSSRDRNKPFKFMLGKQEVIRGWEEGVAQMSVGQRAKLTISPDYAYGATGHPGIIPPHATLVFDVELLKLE

SMILES: CCC(C)(C)C(=O)C(=O)N1CCCC[C@H]1C(=O)O[C@H](CCc1ccc(OC)c(OC)c1)c1cccc(OCC(=O)NCCCOCCOCCOCCCN(C(=O)CCl)C(C(=O)NCc2ccccc2)c2nc3ccccc3s2)c1 (stereo partly drawn) [22-SLF]
- DC50 (FKBP12 [1]; 11 concentrations, 0.25 to 15 μM, 8 h, HEK293T expressing HA-FBXO22, read-out: half-maximal degradation concentration (DC50)): 500 nM
- Concentration dependence of FLAG-FKBP12 degradation (FKBP12 [1]; HEK293T cells expressing HA-FBXO22): concentration-dependent
- FKBP12 degradation with FBXO22 double mutant C227AC228A (FKBP12 [1]; HEK293T cells expressing the variant): completely blocked
- FKBP12 degradation with FBXO22 single mutants C227A and C228A (FKBP12 [1]; HEK293T cells expressing the variants): partially impeded
- Loss of FLAG-FKBP12 expression in cells lacking HA-FBXO22 (FKBP12 [1]; HEK293T cells without HA-FBXO22): no reduction was observed
- Dmax (FKBP12 [1]; HEK-293T, 11 concentrations, 0.25 to 15 μM, 8 h, HEK293T expressing HA-FBXO22): 89%
- Time to nearly complete FLAG-FKBP12 degradation (FKBP12 [1]; time course): ≤ 2 h
- FKBP12 degradation in global proteomics, FBXO22 C227AC228A cells (FKBP12 [2]; HEK293T HA-FBXO22 C227AC228A): no degradation observed
- Proteins degraded among 7,936 quantified proteins, FBXO22 wildtype cells (FKBP12 [2]; HEK293T HA-FBXO22 wildtype): FKBP12 was the only protein degraded
